Assay: Lightfastness: fluorescence intensity of dried drops on filter paper before and after SOL2 irradiation (simulated sunlight behind window glass)
Format: physicochemical
Conditions: dried drop on filter paper; for fluorescence intensity after 20 h of irradiation: after 20 h of irradiation (SOL2), 366 nm; for starting fluorescence intensity under 366 nm wavelength: before SOL2 irradiation, formula (IV) 5% solution in water, comparator in ethanol
Text: As used herein, “lightfast,” “lightfastness,” and “light stable” are used interchangeably as measures of the degree of stability of fluorescence when a compound or composition is irradiated with light energy. The lightfastness of the europium complex of formula (IV), Europium[tris-4,4′-[3-[4-(4-sulfophenyl)-2-pyridinyl]-1,2,4-triazine-5,6-diphenyl]-bis-benzenesulfonic acid, trisodium)] chloride, was compared with a known europium diketonate complex, europium tris-benzoyltrifluoro-acetone, as follows: a 5% solution containing formula (IV) (in water) and a solution of europium-tris-benzoyltrifluoro-acetone (in ethanol) were prepared. One drop from each solution was placed onto a piece of filter paper. The drops were dried in air. The dried drops were then irradiated with SOL2 equipment (simulation of sunlight behind window glass). The starting fluorescence intensity under 366 nm wavelength for the drop containing europium-tris-benzoyltrifluoro-acetone was 19.4 cd/m^2, and the starting fluorescence intensity for the drop containing formula (IV) was 11.5 cd/m^2. After 20 h of irradiation at 366 nm, the fluorescence intensity for the drop containing europium-tris-benzoyltrifluoro-acetone had decreased to only 3.2 cd/m^2, as compared with a fluorescence intensity for the drop containing formula (IV) that was 10.7 cd/m^2.
This occurred even though the molar concentration of the solution containing formula (IV) was lower than the molar concentration of europium-tris-benzoyltrifluoro-acetone (2.2×10^−4 mol versus 6×10^−4 mol, respectively).

Substance: Europium[tris-4,4′-[3-[4-(4-sulfophenyl)-2-pyridinyl]-1,2,4-triazine-5,6-diphenyl]-bis-benzenesulfonic acid, trisodium)] chloride [formula (IV)]
- fluorescence intensity after 20 h of irradiation: 10.7 cd/m^2
- starting fluorescence intensity under 366 nm wavelength: 11.5 cd/m^2

Substance: europium tris-benzoyltrifluoro-acetone [europium-tris-benzoyltrifluoro-acetone]
- fluorescence intensity after 20 h of irradiation: 3.2 cd/m^2
- starting fluorescence intensity under 366 nm wavelength: 19.4 cd/m^2
